Reference: PMC5145814 (Molecular Cell, 2016)

Tests used:
RFS-1/RIP-1 = molecular target: T1, RFS-1/RIP-1 (Caenorhabditis elegans, UniProt P34348); experiment: stopped-flow Cy3 fluorescence, binding to RAD-51-ssDNA filament […]' end; format: biochemical; settings: 25°C; 50 nM RFS-1/RIP-1 pre-incubated with ADP; 1 μM RAD-51, 15 nM 5'-Cy3-43-mer
T1 sequence (P34348 1-245): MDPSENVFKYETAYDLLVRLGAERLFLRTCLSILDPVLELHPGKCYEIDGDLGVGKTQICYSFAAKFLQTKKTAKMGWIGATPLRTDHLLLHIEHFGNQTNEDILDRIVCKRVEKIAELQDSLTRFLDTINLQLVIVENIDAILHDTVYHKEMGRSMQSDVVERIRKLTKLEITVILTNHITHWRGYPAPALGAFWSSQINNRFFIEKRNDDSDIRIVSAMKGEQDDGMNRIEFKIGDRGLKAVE
T1 sequence (Q21621 1-209 partner): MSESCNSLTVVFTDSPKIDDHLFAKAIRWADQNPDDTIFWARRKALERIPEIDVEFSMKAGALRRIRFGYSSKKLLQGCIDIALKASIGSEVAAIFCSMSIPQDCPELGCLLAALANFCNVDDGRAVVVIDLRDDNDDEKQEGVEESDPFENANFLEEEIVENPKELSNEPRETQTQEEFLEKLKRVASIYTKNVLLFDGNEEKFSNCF

RAD-51 = molecular target: T2, RAD-51 (Caenorhabditis elegans, UniProt G5EGG8); experiment: fluorescence titration, fixed TNP-ATP concentration; format: binding; settings: 25°C; fluorescent ATP analog; labelled compound
T2 sequence (G5EGG8 1-357): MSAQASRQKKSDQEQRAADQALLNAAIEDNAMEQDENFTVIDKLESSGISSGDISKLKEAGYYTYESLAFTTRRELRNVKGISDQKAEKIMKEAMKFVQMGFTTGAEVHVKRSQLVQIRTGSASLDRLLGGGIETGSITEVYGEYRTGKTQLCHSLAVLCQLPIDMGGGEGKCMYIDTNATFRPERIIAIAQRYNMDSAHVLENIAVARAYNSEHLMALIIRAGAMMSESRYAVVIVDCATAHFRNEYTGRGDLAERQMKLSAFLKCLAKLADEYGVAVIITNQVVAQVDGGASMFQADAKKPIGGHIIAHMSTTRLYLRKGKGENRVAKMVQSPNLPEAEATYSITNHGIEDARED

Molecule | Δ Cy3 fluorescence (RFS-1/RIP-1) | Kd (RAD-51) [µM]
Nc1ncnc2c1ncn2[C@@H]1O[C@H](COP(=O)(O)OP(=O)(O)O)[C@@H](O)[C@H]1O [ADP] | RFS-1/RIP-1 was pre-incubated with ADP (Figures 5C and 5D) | 
TNP-ATP |  | ~3.5
